Test results as given in PMC6864136 (Saudi Journal of Biological Sciences, 2018).
≈ marks a conversion by molar mass, not a printed value. Where “and” joins values, the source holds several entries; their conditions need not be identical. Identical values can stand only once. Like-named read-outs stand apart in the source and are kept apart here.

Experiments:
electric-eel AChE = electric-eel AChE (Electrophorus electricus, UniProt O42275); experiment: In vitro acetylcholinesterase inhibition; assay type: biochemical
electric-eel AChE, sequence (O42275 24-633): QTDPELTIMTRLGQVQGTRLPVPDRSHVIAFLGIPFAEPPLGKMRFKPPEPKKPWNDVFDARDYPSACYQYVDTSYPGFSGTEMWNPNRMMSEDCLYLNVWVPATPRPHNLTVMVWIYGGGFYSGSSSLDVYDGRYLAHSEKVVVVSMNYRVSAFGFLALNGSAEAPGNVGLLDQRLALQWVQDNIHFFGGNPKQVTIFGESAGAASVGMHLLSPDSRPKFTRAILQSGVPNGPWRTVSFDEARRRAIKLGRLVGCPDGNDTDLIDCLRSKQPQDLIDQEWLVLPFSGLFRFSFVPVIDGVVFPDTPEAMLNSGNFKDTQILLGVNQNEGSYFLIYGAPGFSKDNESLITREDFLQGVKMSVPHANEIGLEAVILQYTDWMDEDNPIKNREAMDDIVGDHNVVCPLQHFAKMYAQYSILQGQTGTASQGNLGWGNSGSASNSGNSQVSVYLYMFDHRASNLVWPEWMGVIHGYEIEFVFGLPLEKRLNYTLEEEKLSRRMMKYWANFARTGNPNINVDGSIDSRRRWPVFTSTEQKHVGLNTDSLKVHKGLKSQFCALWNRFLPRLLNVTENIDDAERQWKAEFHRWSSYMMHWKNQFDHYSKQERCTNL

[1] = test system: Spodoptera frugiperda larvae; experiment: whole plant or invertebrate; assay type: in vivo; conditions: for Antifeedant activity CE50 / Antifeedant activity CE50 (µg/mL): S. frugiperda larvae, no-choice; for Antifeedant activity CE50 / Antifeedant activity CE50 (µg/mL) / EC50: 95% confidence limits in parentheses; for EC50: Spodoptera frugiperda, in Zea mays, read-out: Antifeedant activity CE50 (µg/mL), S. frugiperda larvae, no-choice
[2] = test system: Spodoptera frugiperda larvae; assay type: in vivo
Artemia salina larvae = experiment: Brine shrimp lethality; conditions: A. salina nauplii; 95% confidence limits in parentheses
[3] = S. frugiperda larvae, topical application, 95% confidence limits in parentheses

Compound | IC50 (electric-eel AChE) [µM] | Antifeedant activity CE50 [1] | Antifeedant activity CE50 (µg/mL) [1] | EC50 [1] [µg/mL] | Antifeedant index (% AI) ([1]; concentration 25 µg/mL) [%] | Antifeedant index (% AI) ([1]; concentration 50 µg/mL) [%] | Antifeedant index (% AI) ([1]; concentration 100 µg/mL) [%] | Antifeedant index (% AI) ([1]; concentration 250 µg/mL) [%] | Antifeedant index (% AI) ([1]; concentration 500 µg/mL) [%] | Antifeedant index (% AI) ([1]; concentration 1000 µg/mL) [%] | Insecticidal activity LD50 (mg/g of insect) ([2]; in vivo) | Insecticidal activity LD50 (mg/g of insect) [2, 3] | LC50 (µg/mL), toxicity in Artemia salina larvae test (Artemia salina larvae)
C=CCc1ccc(O)c(OC)c1 [Compound 1, Eugenol] | 180 | < 210 µg/mL | 187.7 (176.6–198.9) µg/mL | 188 (≈ 1140 µM) | 13.5 | 32.3 | 44.9 | 55.3 | 62.8 | 75.0 | – | – | –
C=CCc1ccc(OC)c(OC)c1 [Compound 2, O-methyleugenol] | 157 | – | – | 504 (≈ 2830 µM) | – | – | – | – | – | – | – | – | –
C=CCc1ccc(OC(C)=O)c(OC)c1 [Compound 6, acetyleugenol] | 184 | – | – | – | – | 17.8 | 26.7 | 36.6 | 44.4 | 55.3 | 2.02 (1.87–2.14) mg/g of insect | – | –
C=CCc1ccc(OC(=O)c2ccc([N+](=O)[O-])cc2)c(OC)c1 [Compound 7, O-(4-nitrobenzoyl)eugenol] | 314 | – | – | 724 (≈ 2310 µM) | – | 23.8 | 31.6 | 39.4 | 45.1 | 55.0 | – | – | –
C/C=C/c1ccc(OC)c(OC)c1 [Compound 9, O-methylisoeugenol] | 151 | – | – | 536 (≈ 3010 µM) | – | 20.5 | 33.2 | 40.1 | 47.3 | 58.5 | – | – | –
CC=Cc1ccc(OC(=O)c2ccc([N+](=O)[O-])cc2)c(OC)c1 [Compound 12, O-(4-nitrobenzoyl)isoeugenol] | 228 | – | – | 388 (≈ 1240 µM) | – | 14.4 | 30.2 | 41.5 | 52.8 | 66.9 | – | – | –
CCCc1ccc(O)c(OC)c1 [Compound 13, 2-methoxy-4-propylphenol] | 132 ± 2.77 | – | – | 319 (≈ 1920 µM) | – | 11.7 | 26.7 | 38.6 | 65.0 | 72.9 | – | 2.02 (1.87–2.17) mg/g of insect | –
COc1cc(C2OCOCC2C)ccc1O (centres unmarked) [Compound 14, 2-methoxy-4-(5-methyl-1,3-dioxan-4-yl)-phenol] | 168 | – | – | 1800 (≈ 8010 µM) | – | – | 10.5 | 20.0 | 33.2 | 41.9 | – | – | –
CC1(C)C(C=C(Cl)Cl)C1C(=O)OC(C#N)c1cccc(Oc2ccccc2)c1 (centres unmarked) [Cypermethrin, cypermethrin, reference compound] | – | – | 23.83 (22.55–25.15) µg/mL | 23.9 (≈ 57.3 µM) | 49.2 | 56.0 | 61.0 | 66.5 | 72.7 | 77.9 | – | – | 404.2 (383.2–425.2) µg/mL
CNC(=O)ON=C(C)SC [Methomyl, methomyl, reference compound] | 1.91 | – | – | – | – | – | – | – | – | – | – | 0.31 (0.29–0.33) mg/g of insect | 205.2 (184.9–225.5) µg/mL
Isoeugenol [Compound 8] | – | 158.51 µg/mL and < 210 µg/mL | 158.5 (149.3–167.8) µg/mL | – | 15.6 | 37.3 | 45.6 | 56.6 | 65.9 | 78.5 | – | – | –
